# Source: ChEMBL document CHEMBL1138586 (Bioorg Med Chem Lett, 2009)
# Target: Coagulation factor X (Homo sapiens, UniProt P00742)
# Assay: Inhibition of Factor 10a
# Coagulation factor X, sequence (P00742 41-179 limits assumed): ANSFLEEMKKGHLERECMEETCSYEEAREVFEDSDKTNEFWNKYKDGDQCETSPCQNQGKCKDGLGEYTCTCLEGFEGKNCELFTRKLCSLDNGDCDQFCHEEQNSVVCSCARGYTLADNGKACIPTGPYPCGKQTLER
# Coagulation factor X, sequence (P00742 235-488 limits assumed): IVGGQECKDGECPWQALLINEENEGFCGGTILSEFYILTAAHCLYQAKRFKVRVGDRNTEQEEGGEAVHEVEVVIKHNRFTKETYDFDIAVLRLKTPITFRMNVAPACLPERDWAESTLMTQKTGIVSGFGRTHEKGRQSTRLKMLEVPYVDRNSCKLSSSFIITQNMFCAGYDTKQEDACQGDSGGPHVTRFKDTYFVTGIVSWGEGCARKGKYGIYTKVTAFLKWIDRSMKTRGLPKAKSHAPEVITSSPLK
row,IC50 [nM],SMILES
1,0.7,CN(C)C(=N)c1ccc(C(=O)Nc2ccc(Cl)cc2C(=O)Nc2ccc(Cl)cn2)c(N2CCOCC2)c1
2,0.9,CN(C)C(=N)c1ccc(C(=O)Nc2c(C(=O)Nc3ccc(Cl)cn3)cc(Cl)cc2N2CCCCC2)cc1
3,2,N=C(c1ccc(C(=O)Nc2ccc(Cl)cc2C(=O)Nc2ccc(Cl)cn2)cc1)N1CCCC1
4,0.7,Cc1ccc(NC(=O)c2ccc(C(=N)N(C)C)cc2)c(C(=O)Nc2ccc(Cl)cn2)c1
5,2,COc1ccc(NC(=O)c2ccc(C(=N)N(C)C)cc2N2CCCCC2)c(C(=O)Nc2ccc(Cl)cn2)c1
6,0.9,C#Cc1ccc(NC(=O)c2cc(Cl)ccc2NC(=O)c2ccc(C(=N)N(C)C)cc2)cc1
7,1.2,COCCOc1cc(C(=N)N(C)C)ccc1C(=O)Nc1ccc(Cl)cc1C(=O)Nc1ccc(Cl)cn1
8,1.4,CN(C)C(=N)c1ccc(C(=O)Nc2ccc(F)cc2C(=O)Nc2ccc(Cl)cn2)cc1
9,2,N=C(c1ccc(C(=O)Nc2ccc(Cl)cc2C(=O)Nc2ccc(Cl)cn2)cc1)N1CCC(C(=O)O)CC1
10,1.2,N=C(c1ccc(C(=O)Nc2ccc(Cl)cc2C(=O)Nc2ccc(Cl)cn2)cc1)N1CCC1
11,0.6,CCOc1cc(Cl)cc(C(=O)Nc2ccc(Cl)cn2)c1NC(=O)c1ccc(C(=N)N(C)C)cc1
12,3,CN(C)C(=N)c1ccc(C(=O)Nc2ccc(Cl)cc2C(=O)Nc2ccc(Cl)cn2)cn1
13,0.5,COCCN(C)c1cc(C(=N)N(C)C)ccc1C(=O)Nc1ccc(Cl)cc1C(=O)Nc1ccc(Cl)cn1
14,0.5,CC(C)Oc1cc(Cl)cc(C(=O)Nc2ccc(Cl)cn2)c1NC(=O)c1ccc(C(=N)N(C)C)cc1
15,1,CN(C)C(=N)c1csc(C(=O)Nc2ccc(Cl)cc2C(=O)Nc2ccc(Cl)cn2)c1
16,1,CN(C)C(=N)c1ccc(C(=O)Nc2ccc(Cl)cc2C(=O)Nc2ccc(Cl)cn2)c(N2CCCCCC2)c1
17,2,CN(C)C(=N)c1ccc(C(=O)Nc2cc(Cl)ccc2C(=O)Nc2ccc(Cl)cn2)cc1
18,3,CN(C)C(=N)c1ccc(C(=O)Nc2ccc(Cl)cc2C(=O)Nc2ccc(F)cn2)cc1

row,IC50 [nM],SMILES
1,1.1,CN(C)C(=N)c1ccc(C(=O)Nc2ccc(Cl)cc2C(=O)Nc2ccc(Cl)cn2)cc1F
2,0.5,CN(C)C(=N)c1ccc(C(=O)Nc2c(C(=O)Nc3ccc(Cl)cn3)cc(Cl)cc2N(C)C)cc1
3,2,CN(C)C(=N)c1ccc(C(=O)Nc2ccsc2C(=O)Nc2ccc(Cl)cn2)cc1
4,7,COc1cc(C(=O)Nc2ccc(Cl)cc2C(=O)Nc2ccc(Cl)cn2)ccc1C(=N)N(C)C
5,2,N=C(c1ccc(C(=O)Nc2ccc(Cl)cc2C(=O)Nc2ccc(Cl)cn2)cc1)N1CCOCC1
6,3,CN(C)C(=N)c1ccc(C(=O)Nc2ccc(Cl)cc2C(=O)Nc2ccc(Cl)cn2)c(N(C)C)c1
7,1.3,CN(C)C(=N)c1ccc(C(=O)Nc2ccc(C(F)(F)F)cc2C(=O)Nc2ccc(Cl)cn2)cc1
8,1.1,Cc1ccc(NC(=O)c2cc(Cl)ccc2NC(=O)c2ccc(C(=N)N(C)C)cc2)nc1
9,1.2,CN(C)C(=N)c1ccc(C(=O)Nc2ccc(C#N)cc2C(=O)Nc2ccc(Cl)cn2)cc1
10,0.7,CN(C)C(=N)c1ccc(C(=O)Nc2ccc(Cl)cc2C(=O)Nc2ccc(Cl)cn2)c(N2CCC(C(=O)O)CC2)c1
11,6,CCN1CCN=C1c1ccc(C(=O)Nc2ccc(Cl)cc2C(=O)Nc2ccc(Cl)cn2)cc1
12,21,CN(C)C(=N)c1ccc(C(=O)Nc2c(Cl)cccc2C(=O)Nc2ccc(Cl)cn2)cc1
13,17,CN(C)C(=N)c1ccc(C(=O)Nc2ccc(OC(F)(F)F)cc2C(=O)Nc2ccc(Cl)cn2)cc1
14,0.7,CN(C)C(=N)c1ccc(C(=O)Nc2ccc(Cl)cc2C(=O)Nc2ccc(Cl)cc2)cc1
15,1.3,CCSc1ccc(NC(=O)c2ccc(C(=N)N(C)C)cc2)c(C(=O)Nc2ccc(Cl)cn2)c1
16,0.5,CCN(C)c1cc(Cl)cc(C(=O)Nc2ccc(Cl)cn2)c1NC(=O)c1ccc(C(=N)N(C)C)cc1
17,1.3,CN(C)C(=N)c1ccc(C(=O)Nc2c(C(=O)Nc3ccc(Cl)cn3)cc(Cl)cc2N2CCOCC2)cc1
